Source: US12365670B2, “GLP-IR agonists and uses thereof” (QILU REGOR THERAPEUTICS INC., priority 2018, dated 2025)

What was measured:
[1] = Monkey oral pharmacokinetic (PK) study; format: in vivo, Cynomolgus monkeys (Macaca fascicularis); conditions: for plasma concentration-time profile: PO, over about 24 hours after oral dosing, FIGS. 8A-8E; for AUC0-24 h (Arbitrary units) / Cmax (Arbitrary unit): oral
Procedure: Appropriate volumes of vehicles (e.g., 2% Tween 80 (v:v) and 0.5% MC (w:v) in saline or 0.5% MC (w:v) in water were then added into the mortar containing the ground compounds, and the mixture was then grinded with a pestle until a homogeneous paste was formed. Additional appropriate volumes of vehicles were added into the mortar containing each compound, and the mixture was grinded further with the pestle until a homogeneous suspension was obtained.
The suspension was then transferred into a glass bottle. The mortar and the pestle were rinsed with the vehicle until no compound was left in the mortar or on the pestle.
The rest of the vehicle was added to make up the final dosing volume of about 1 mg/mL or 2 mg/mL (i.e., final dosing volume of about 5 mL/kg), and the homogenous suspension was continuously stirred prior to and during the dosing.
Non-nave Cynomolgus male monkeys (n=3/test article; sourced from Hainan Jingang Biotech Co., Ltd., Nayang Xintan, Fucheng Town, Qiongshan District, Haikou City, Hainan Province, China); or non-naïve aged, obese, and diabetic male Macaca fascicularis monkeys (n=3/test article, Source: Kunming Biomed International Colony) were used in pre-clinical in vivo studies. All non-nave Cynomolgus male monkeys were approximately 3 to 5 years old, weighed about 2.5-5 kg, and were within ±20% of the average body weight. All non-nave aged, obese, and diabetic male Macaca fascicularis monkeys were approximately 12 to 20 years old, weighed about >8-12 kg.
All animals were fasted overnight before dosing, and the food were supplied approximately 4 hours post dose (with free access to water all the time).
Animals were restrained at designated time points for blood sampling. Approximately 500 μL of blood samples was taken via cephalic or saphenous vein into EDTA-K2 tubes. Blood samples were put on wet ice before centrifugation.
For oral administration (PO) of either Dose 1 or Dose 2: blood samples were collected at pre-dose, and at 15 min, 30 min, 1 hr, 2 hr, 4 hr, (6 hr for compounds 19 and 28 with cynomolgus monkeys only), 8 hr, 12 hr, and 24 hr post dose (i.e., 9 or 10 total time points for each compound at each dose).
The blood samples were centrifuged at approximately 2,000-4,000 rpm for about 10-15 minutes at 2-8° C., and each resulting plasma portion was then transferred into an individual tube.
LC-MS/MS methods were developed, and bioanalysis for the test articles in monkey plasma was performed according to the developed LC-MS/MS methods.
Undiluted plasma samples: An aliquot of 20-50 μL plasma sample was mixed with 200 μL of ACN or MeOH containing one of the internal standards (IS, e.g., Diclofenac or Terfenadine) The mixture was then vortexed for about 1-5 min, and centrifuged at about 4,000-5,800 rpm for about 10-15 min. An aliquot of 1 μL supernatant was used for LC-MS/MS analysis.
Plasma samples with 10-fold dilution: An aliquot of 2 μL plasma sample was first mixed with 18 μL of blank plasma, then 200 μL of ACN containing 100 ng/mL IS (e.g. Diclofenac) was added to the mixture. The mixture was then vortexed for about 10 min, and was centrifuged at about 5,800 rpm for about 10 min. An aliquot of 1 μL supernatant was used for LC-MS/MS analysis.
MS conditions: Positive ion, ESI, MRM detection with parent and daughter ions, internal standard Diclofenac. • Compound ID: Compounds 19, 28, 29, 225 or 418 (control) HPLC conditions Method 1: • Mobile Phase A: H2O-0.025% FA-1 mM NH4OAC • Mobile Phase B: MeOH-0.025% FA-1 mM NH4OAC
Pharmacokinetics parameters, including area under the curve (AUC0-t), maximum plasma concentration (Cmax), time to reach maximum plasma concentration (Tmax), oral bioavailability (F %), etc., were calculated using Phoenix software (Version 6.4) and non-compartment model.

[2] = target: T1, GLP1R (Homo sapiens, UniProt P43220); test: GLP-1R/β-Arrestin recruitment assay (PathHunter eXpress GLP1R CHO-K1 β-Arrestin GPCR Assay); format: cell-based; design: host or cells: PathHunter CHO-K1 GLP1R β-Arrestin cells (from the kit); conditions: averaged Bmax, Percentage of Control GLP-1 (7-37), top concentration 10 μM
Source text: GLP-1R agonist activity with respect to β-arrestin recruitment can be determined with a cell-based functional assay using PathHunter eXpress GLP1R CHO-K1 β-Arrestin GPCR Assay kit (DiscoverX Cat #93-0300E2CPOM).
The PathHunter β-Arrestin GPCR assay technology utilizes a β-galactosidase ([…]) enzyme that is split into two fragments, the smaller Enzyme Donor (ED) and the larger Enzyme Acceptor (EA). These fragments can be fused to two proteins that may interact with each other, such as EA-β-Arrestin and ED-GLP-1R. The fusions can be stably expressed in a test cell line, such as the PathHunter CHO-K1 GLP1R β-Arrestin cells described below. […]
In this experiment, PathHunter CHO-K1 GLP1R β-Arrestin cells from the assay kit were plated at a density of 1000 or 2000 cells/[…]/well in a 384-well white/clear bottom plates (Greiner Cat #781098). […] Cells were stored in a 37° C. incubator under 5% CO2 and kept for approximately 48 hours until ready to run the assay. […]
Following 90 min incubation, detection reagents were made up by combining 1 part Galacton Star Substrate with 5 parts Emerald II™ Solution, and 19 parts of PathHunter Cell Assay Buffer, respectively. […] Plates were then read on Envision for 0.1 sec/well.
EC50 determinations were made from agonist dose-response curves analyzed with a curve fitting program using a 4-parameter logistic dose response equation. […]

[3] = target: T1, GLP1R; test: β-Arrestin-mediated GLP1R internalization assay (PathHunter engineered U2OS cells); format: cell-based; design: host or cells: PathHunter engineered U2OS cells; conditions: averaged Bmax, Percentage of Control GLP-1 (7-37), top concentration 10 μM
Source text: A similar assay can also be used to assess the extent of signal attenuation due to GLP-1R internalization (the β-Arrestin Internalization Assay). In this assay, activated GLP1R Internalization cells were engineered to co-express an untagged GLP1R, Enzyme Acceptor (EA) tagged β-Arrestin, and a ProLink™ (PK) tag localized to the endosomes. Activation of the GLP1R induces β-Arrestin recruitment, which leads to internalization of the Receptor/Arrestin-EA complex in PK-tagged endosomes. This forces complementation of the two β-galactosidase enzyme fragments (EA and PK) to form a functional enzyme that hydrolyzes substrate to generate a chemiluminescent signal. […]
Specifically, PathHunter engineered U2OS cells from the assay kit (Cat #93-0724E3CP0L) were plated at a density of 2000 cells/20 μL/well in a 384-well white/clear bottom plates (Greiner Cat #781098). […] Cells were stored in a 37° C. incubator and kept for approximately 48 hours until ready for the assay. […]
Following 180 min incubation, detection reagents were made up by combining 1 part Galacton Star Substrate with 5 parts Emerald II™ Solution, and 19 parts of PathHunter Cell Assay Buffer, respectively. […] Plates were then read on Envision for 0.1 sec/well.
EC50 determinations were made from agonist dose-response curves analyzed with a curve fitting program using a 4-parameter logistic dose response equation.

[4] = Dose 1, non-naive Cynomolgus male monkeys

T1 sequence (P43220 24-463): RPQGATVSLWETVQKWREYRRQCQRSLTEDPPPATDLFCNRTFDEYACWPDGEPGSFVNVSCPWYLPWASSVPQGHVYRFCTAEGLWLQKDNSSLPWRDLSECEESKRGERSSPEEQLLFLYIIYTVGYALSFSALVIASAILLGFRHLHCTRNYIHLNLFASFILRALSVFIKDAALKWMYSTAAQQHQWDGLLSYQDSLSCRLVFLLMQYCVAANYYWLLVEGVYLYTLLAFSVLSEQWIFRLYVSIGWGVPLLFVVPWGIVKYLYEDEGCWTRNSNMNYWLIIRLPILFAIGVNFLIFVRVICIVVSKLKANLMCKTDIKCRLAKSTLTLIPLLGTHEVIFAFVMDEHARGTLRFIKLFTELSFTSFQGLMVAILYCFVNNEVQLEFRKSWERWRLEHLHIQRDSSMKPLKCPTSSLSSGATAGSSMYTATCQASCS

N#Cc1ccc(COc2cccc(C3=CCN(Cc4nc5ccc(C(=O)O)cc5n4C[C@@H]4CCO4)CC3)n2)c(F)c1 [Compound 19, (S)-2-((4-(6-(4-cyano-2-fluorobenzyloxy)pyridin-2-yl)-5,6-dihydropyridin-1(2H)-yl)methyl)-1-(oxetan-2-ylmethyl)-1 h-benzo[d]imidazole-6-carboxylic acid]
plasma concentration-time profile [1]: sustained at a more constant level | AUC0-24 h (Arbitrary units) [1, 4]: 1130 Arbitrary units | Cmax (Arbitrary unit) [1, 4]: 125 Arbitrary unit

N#Cc1ccc(COc2cccc(C3CCN(Cc4nc5ccc(C(=O)O)cc5n4C[C@@H]4CCO4)CC3)n2)c(F)c1 [Compound 418, reference compound]
AUC0-24 h (Arbitrary units) ([1]; Dose 2, monkeys): 774 Arbitrary units | Cmax (Arbitrary unit) ([1]; Dose 2, monkeys): 232 Arbitrary unit | drop in plasma concentration ([1]; over about 24 hours post oral dosing, Dose 2, FIG. 8F): about 10 fold

O=C(O)c1ccc2nc(CN3CCN(c4cccc(NCc5ccc(Cl)cc5F)n4)CC3)n(C[C@@H]3CCO3)c2c1 [Compound 1, (S)-2-((4-(6-(4-chloro-2-fluorobenzylamino)pyridin-2-yl)piperazin-1-yl)methyl)-1-(oxetan-2-ylmethyl)-1 h-benzo[d]imidazole-6-carboxylic acid]
Bmax (POC) [2]: 2.80 POC

O=C(O)c1ccc2nc(CN3CC=C(c4ccc(F)c(OCc5ccc(Cl)cc5F)c4)CC3)n(C[C@@H]3CCO3)c2c1 [Compound 29, (S)-2-((4-(3-((4-chloro-2-fluorobenzyl)oxy)-4-fluorophenyl)-3,6-dihydropyridin-1(2H)-yl)methyl)-1-(oxetan-2-ylmethyl)-1 h-benzo[d]imidazole-6-carboxylic acid]
plasma concentration-time profile [1]: sustained at a more constant level | AUC0-24 h (Arbitrary units) ([1]; Dose 2, monkeys): 21800 Arbitrary units | Cmax (Arbitrary unit) ([1]; Dose 2, monkeys): 3380 Arbitrary unit

O=C(O)c1ccc2nc(CN3CC=C(c4cccc(OCc5ccc(Cl)cc5F)c4)CC3)n(C[C@@H]3CCO3)c2c1 [Compound 28, (S)-2-((4-(3-((4-chloro-2-fluorobenzyl)oxy)phenyl)-3,6-dihydropyridin-1(2H)-yl)methyl)-1-(oxetan-2-ylmethyl)-1 h-benzo[d]imidazole-6-carboxylic acid]
plasma concentration-time profile [1]: sustained at a more constant level | AUC0-24 h (Arbitrary units) [1, 4]: 24900 Arbitrary units | Cmax (Arbitrary unit) [1, 4]: 3910 Arbitrary unit

O=C(O)c1ccc2nc(CN3CC=C(c4ccc(F)c(OCc5ccc(Cl)cc5F)c4)CC3)n(C[C@@H]3CCO3)c2n1 [Compound 236, (S)-2-((4-(3-((4-chloro-2-fluorobenzyl)oxy)-4-fluorophenyl)-5,6-dihydropyridin-1(2H)-yl)methyl)-3-(oxetan-2-ylmethyl)-3H-imidazo[4,5-b]pyridine-5-carboxylic acid]
Bmax (POC) [3]: 30.0 POC

N#Cc1ccc(COc2cccc(C3=CCN(Cc4nc5ccc(C(=O)O)nc5n4C[C@@H]4CCO4)CC3)n2)c(F)c1 [Compound 225, (S)-2-((6-((4-cyano-2-fluorobenzyl)oxy)-3′,6′-dihydro-[2,4′-bipyridin]-1′(2′H)-yl)methyl)-3-(oxetan-2-ylmethyl)-3H-imidazo[4,5-b]pyridine-5-carboxylic acid]
plasma concentration-time profile [1]: sustained at a more constant level | AUC0-24 h (Arbitrary units) ([1]; Dose 2, monkeys): 1500 Arbitrary units | Cmax (Arbitrary unit) ([1]; Dose 2, monkeys): 184 Arbitrary unit
